Source: article PMC9014845 (Clinical cancer research : an official journal of the …, 2019)

System: patients with advanced solid tumors harboring FGFR1–3 gene alterations
Assay: Phase I dose-escalation: safety/tolerability
Format: in vivo, human

Debio 1347
TEAE: Back pain (150 mg (n=3), all grades): 1 (33) Number (%) of patients
TEAE: Blurred vision (150 mg (n=3), all grades): 0 Number (%) of patients
TEAE: Constipation (150 mg (n=3), all grades): 1 (33) Number (%) of patients
TEAE: Creatinine increased (in blood) (150 mg (n=3), all grades): 0 Number (%) of patients
TEAE: Decreased appetite (150 mg (n=3), all grades): 1 (33) Number (%) of patients
TEAE: Diarrhea (150 mg (n=3), all grades): 1 (33) Number (%) of patients
TEAE: Dry eye (150 mg (n=3), all grades): 1 (33) Number (%) of patients
TEAE: Dry mouth (150 mg (n=3), all grades): 1 (33) Number (%) of patients
TEAE: Dry skin (150 mg (n=3), all grades): 1 (33) Number (%) of patients
TEAE: Dysgeusia (150 mg (n=3), all grades): 2 (67) Number (%) of patients
TEAE: Dyspnea (150 mg (n=3), all grades): 1 (33) Number (%) of patients
TEAE: Edema peripheral (150 mg (n=3), all grades): 1 (33) Number (%) of patients
TEAE: Fatigue (150 mg (n=3), all grades): 0 Number (%) of patients
TEAE: Hyperphosphatemia (150 mg (n=3), all grades): 3 (100) Number (%) of patients
TEAE: Hypertension (150 mg (n=3), all grades): 0 Number (%) of patients
TEAE: Hypokalemia (150 mg (n=3), all grades): 0 Number (%) of patients
TEAE: Hypomagnesemia (150 mg (n=3), all grades): 0 Number (%) of patients
TEAE: Mucosal inflammation (150 mg (n=3), all grades): 1 (33) Number (%) of patients
TEAE: Myalgia (150 mg (n=3), all grades): 0 Number (%) of patients
TEAE: Nail changes (150 mg (n=3), all grades): 3 (100) Number (%) of patients
TEAE: Nausea (150 mg (n=3), all grades): 2 (67) Number (%) of patients
TEAE: Stomatitis (150 mg (n=3), all grades): 1 (33) Number (%) of patients
TEAE: Vomiting (150 mg (n=3), all grades): 1 (33) Number (%) of patients
Patients requiring dose reduction (60 and 80 mg): 20%
Any TEAE (all doses (n=58), all grades): 58 (100%) Number (%) of patients
Any TEAE leading to discontinuation (all doses (n=58), all grades): 7 (12.1) Number (%) of patients
Any TEAE leading to dose reduction (all doses (n=58), all grades): 13 (22.4) Number (%) of patients
Any TEAE leading to treatment interruption (all doses (n=58), all grades): 26 (44.8) Number (%) of patients
Serious TEAE (all doses (n=58), all grades): 20 (34.5) Number (%) of patients
TEAE: ALT increased (all doses (n=58), all grades): 6 (10) Number (%) of patients
TEAE: AST increased (all doses (n=58), all grades): 6 (10) Number (%) of patients
TEAE: Abdominal pain (all doses (n=58), all grades): 12 (21) Number (%) of patients
TEAE: Alopecia (all doses (n=58), all grades): 11 (19) Number (%) of patients
TEAE: Anemia (all doses (n=58), all grades): 12 (21) Number (%) of patients
TEAE: Back pain (all doses (n=58), all grades): 9 (16) Number (%) of patients
TEAE: Blurred vision (all doses (n=58), all grades): 6 (10) Number (%) of patients
TEAE: Constipation (all doses (n=58), all grades): 19 (33) Number (%) of patients
TEAE: Creatinine increased (in blood) (all doses (n=58), all grades): 8 (14) Number (%) of patients
TEAE: Decreased appetite (all doses (n=58), all grades): 18 (31) Number (%) of patients
TEAE: Diarrhea (all doses (n=58), all grades): 24 (41) Number (%) of patients
TEAE: Dry eye (all doses (n=58), all grades): 8 (14) Number (%) of patients
TEAE: Dry mouth (all doses (n=58), all grades): 15 (26) Number (%) of patients
TEAE: Dry skin (all doses (n=58), all grades): 10 (17) Number (%) of patients
TEAE: Dysgeusia (all doses (n=58), all grades): 10 (17) Number (%) of patients
TEAE: Dyspnea (all doses (n=58), all grades): 12 (21) Number (%) of patients
TEAE: Edema peripheral (all doses (n=58), all grades): 8 (14) Number (%) of patients
TEAE: Fatigue (all doses (n=58), all grades): 22 (38) Number (%) of patients
TEAE: Hyperphosphatemia (all doses (n=58), all grades): 44 (76) Number (%) of patients
TEAE: Hypertension (all doses (n=58), all grades): 7 (12) Number (%) of patients
TEAE: Hypokalemia (all doses (n=58), all grades): 8 (14) Number (%) of patients
TEAE: Hypomagnesemia (all doses (n=58), all grades): 7 (12) Number (%) of patients
TEAE: Mucosal inflammation (all doses (n=58), all grades): 8 (14) Number (%) of patients
TEAE: Myalgia (all doses (n=58), all grades): 12 (21) Number (%) of patients
TEAE: Nail changes (all doses (n=58), all grades): 17 (29) Number (%) of patients
TEAE: Nausea (all doses (n=58), all grades): 23 (40) Number (%) of patients
TEAE: Stomatitis (all doses (n=58), all grades): 12 (21) Number (%) of patients
TEAE: Vomiting (all doses (n=58), all grades): 11 (19) Number (%) of patients
Any TEAE (all doses (n=58), grade ≥3): 37 (64%) Number (%) of patients
TEAE: ALT increased (all doses (n=58), grade ≥3): 2 (3) Number (%) of patients
TEAE: AST increased (all doses (n=58), grade ≥3): 1 (2) Number (%) of patients
TEAE: Abdominal pain (all doses (n=58), grade ≥3): 1 (2) Number (%) of patients
TEAE: Alopecia (all doses (n=58), grade ≥3): 0 Number (%) of patients
TEAE: Anemia (all doses (n=58), grade ≥3): 7 (12) Number (%) of patients
TEAE: Back pain (all doses (n=58), grade ≥3): 1 (2) Number (%) of patients
TEAE: Blurred vision (all doses (n=58), grade ≥3): 0 Number (%) of patients
TEAE: Constipation (all doses (n=58), grade ≥3): 1 (2) Number (%) of patients
TEAE: Creatinine increased (in blood) (all doses (n=58), grade ≥3): 0 Number (%) of patients
TEAE: Decreased appetite (all doses (n=58), grade ≥3): 1 (2) Number (%) of patients
TEAE: Diarrhea (all doses (n=58), grade ≥3): 2 (3) Number (%) of patients
TEAE: Dry eye (all doses (n=58), grade ≥3): 0 Number (%) of patients
TEAE: Dry mouth (all doses (n=58), grade ≥3): 0 Number (%) of patients
TEAE: Dry skin (all doses (n=58), grade ≥3): 0 Number (%) of patients
TEAE: Dysgeusia (all doses (n=58), grade ≥3): 0 Number (%) of patients
TEAE: Dyspnea (all doses (n=58), grade ≥3): 3 (5) Number (%) of patients
TEAE: Edema peripheral (all doses (n=58), grade ≥3): 0 Number (%) of patients
TEAE: Fatigue (all doses (n=58), grade ≥3): 0 Number (%) of patients
TEAE: Hyperphosphatemia (all doses (n=58), grade ≥3): 12 (21) Number (%) of patients
TEAE: Hypertension (all doses (n=58), grade ≥3): 0 Number (%) of patients
TEAE: Hypokalemia (all doses (n=58), grade ≥3): 1 (2) Number (%) of patients
TEAE: Hypomagnesemia (all doses (n=58), grade ≥3): 0 Number (%) of patients
TEAE: Mucosal inflammation (all doses (n=58), grade ≥3): 1 (2) Number (%) of patients
TEAE: Myalgia (all doses (n=58), grade ≥3): 0 Number (%) of patients
TEAE: Nail changes (all doses (n=58), grade ≥3): 0 Number (%) of patients
TEAE: Nausea (all doses (n=58), grade ≥3): 0 Number (%) of patients
TEAE: Stomatitis (all doses (n=58), grade ≥3): 2 (3) Number (%) of patients
TEAE: Vomiting (all doses (n=58), grade ≥3): 0 Number (%) of patients
Patients in whom adverse events required dose modifications (all doses, n=58): 52%
Patients requiring dose modifications due to AEs (all doses, n=58): 30 (52%) patients (%)
Patients with dose modifications due to asymptomatic hyperphosphatemia (all doses, n=58): 22%
Patients reporting blurred vision (at 30–150 mg, mainly grade 1): 6 patients
Recommended phase 2 dose (RP2D) (dose reduction to 60 mg/day in case of intolerable toxicity): 80 mg/daily
Maximum tolerated dose (doses up to 150 mg/day once daily, 3+3+3 design): not formally reached
Patients with DLTs (first 4 weeks, at three dose levels, 58 treated at 10 to 150 mg/day): Five
Number of DLTs (first 4 weeks, dry mouth/eyes, hyperamylasemia, hypercalcemia, hyperbilirubinemia, hyperphosphatemia, stomatitis): 6 DLTs
SAEs deemed possibly study drug related (DLTs) (hyperamylasemia (80 mg), stomatitis (110 mg)): two
Maximum severity of dermatological toxicity / nail changes (in vivo): ≤ 2 grade
Patients with QTc prolongations of grade 1 or 2 (in vivo): Three
Patients with nail changes requiring dose adjustment (in vivo): 3 patients
Drug-related deaths (n=58): no death was considered drug-related
Number of SAEs (n=58): 39 SAEs
Patients experiencing SAEs (n=58): 20 patients
Patients who died from disease progression (n=58): 21 patients
Patients with highest TEAE severity grade 1 (n=58): 4 (7%) patients (%)
Patients with highest TEAE severity grade 2 (n=58): 17 (29%) patients (%)
Patients with highest TEAE severity grade 3 (n=58): 28 (48%) patients (%)
Patients with highest TEAE severity grade 4 (n=58): 2 (3%) patients (%)
Patients with highest TEAE severity grade 5 (n=58): 7 (12%) patients (%)
Dose up to which tolerability was acceptable (oral once daily): up to 80 mg/day
Lowest dose at which serum phosphate increases occurred (typically between 1st and 3rd week of dosing): 20 mg
Dose reduction required (up to 40 mg): no dose reduction was required
